Series [1] concerns Trypanosoma brucei brucei L427 wild-type (WT) bloodstream forms. Kind of series: Activity against T. brucei (resazurin-based assay). Format: cell-based. The note with it: at 10 μM. Here is the method:
The parasites were grown in 5 mL T25 ventilated flasks containing complete HMI-9 medium. The medium was supplemented with 10% heat-inactivated FBS and 100 IU/mL penicillin/streptomycin. To maintain the cultures, subpassages were performed every 2 days at a concentration of 1 × 10^4 cells/mL.
The efficacy of the compounds against Trypanosoma brucei brucei L427 wild-type (WT) bloodstream forms was assessed using a resazurin-based assay as described elsewhere. T. b. brucei L427 bloodstream forms were prepared at a cell density of 5 × 10^3 cells/mL in supplemented complete medium. Serial dilutions of the test compounds were prepared in a final volume of 100 μL, and 100 μL of the parasite suspension was added to each well containing the compound dilutions, resulting in a total volume of 200 μL per well. A dose–response curve for pentamidine was included as a quality control in each assay, and each condition was tested in duplicate. The plates were incubated for 72 h under the specified conditions for the parasite. After the incubation period, 20 μL of a 0.5 mM resazurin solution was added to each well, and the plates were incubated for an additional 4 h under the same conditions. Fluorescence was measured at an excitation wavelength of 544 nm and an emission wavelength of 590 nm using a Synergy 2 Multi-Mode Reader (Biotek, Winooski, VT, USA). The results were expressed as the percentage of parasite growth inhibition compared to the control (untreated parasites) and represented the average of at least three independent experiments.

In series [2] the test system is THP-1-derived macrophages. Kind of series: Cytotoxicity assay (MTT) on THP-1-derived macrophages. The format is cell-based, Human. The note with it: cytotoxic concentration for THP1 cells. The procedure: Human leukemia cell line THP-1 (ATCC TIB202) cells were cultured in RPMI-1640 medium supplemented with 10% heat-inactivated fetal bovine serum (FBS), 2 mM L-glutamine, 100 IU/mL penicillin/streptomycin, and 20 mM HEPES. The cell line was maintained in a humidified incubator at 37 °C with 5% CO2. Subcultures were performed every 3 days in 20 mL of media at a concentration of 2 × 10^5 cells/mL in a T75 flask. All cell culture reagents were purchased from Lonza Bioscience (Morrisville, NC).
The cytotoxicity of the compounds on THP-1-derived macrophages was assessed using the colorimetric MTT assay (3-(4,5-dimethylthiazol-2-yl)-2,5-diphenyl tetrazolium bromide) as described elsewhere. THP-1 cells were suspended in RPMI complete medium at a density of 1 × 10^6 cells/mL, and 100 μL/well was seeded in a 96-well plate. The cells were differentiated into macrophages by adding 40 ng/mL of phorbol-myristate 13-acetate (PMA, Sigma, Saint Louis, MI, USA) for 24 h, followed by replacement with fresh medium for another 24 h. Subsequently, the cells were incubated with 100 μL of compounds, ranging from 100 to 12.5 μM, diluted in RPMI complete medium. Each condition was tested in triplicate. After 72 h of incubation at 37 °C with 5% CO2, the medium was removed, and 200 μL of 0.5 mg/mL MTT solution diluted in RPMI was added. The plates were incubated for an additional 4 h, after which 160 μL of the media was removed and replaced with 160 μL of 2-propanol. Absorbance was read at 570 nm using a Synergy 2 Multi-Mode Reader (Biotek, Winooski, VT, USA). Cytotoxicity was evaluated by presenting the CC50 (the concentration of the drug that reduces cell viability by 50%) interval or by determining the CC50 value through nonlinear regression analysis using GraphPad Prism version 8.1.1 for Windows (GraphPad Software, San Diego, CA, USA). Results represent the average of at least three independent experiments.

Series [3] deals with T1, TbPTR1 (Trypanosoma brucei brucei, UniProt O76290).
T1 sequence (O76290 1-268): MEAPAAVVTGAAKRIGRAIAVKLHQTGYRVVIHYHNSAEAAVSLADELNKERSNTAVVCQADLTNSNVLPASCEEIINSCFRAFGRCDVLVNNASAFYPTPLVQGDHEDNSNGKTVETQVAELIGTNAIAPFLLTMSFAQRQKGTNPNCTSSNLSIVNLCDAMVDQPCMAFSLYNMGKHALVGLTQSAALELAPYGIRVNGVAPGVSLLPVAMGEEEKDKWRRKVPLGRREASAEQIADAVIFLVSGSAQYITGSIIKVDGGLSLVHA
Kind of series: TbPTR1 kinetic direct enzyme assay (NADPH consumption). Format: biochemical. Conditions: direct method of activity measurement, duplicate. The procedure:
A direct kinetic assay was carried out to measure NADPH consumption over time using a Jasco V730 double-beam spectrophotometer. The assay was conducted as reported in ref . Thawed protein was incubated in 40 mM citrate buffer (pH 3.7) at a final concentration of 30 nM, along with the endogenous substrate at 27 μM. The reaction was carried out in a Kartell semimicro disposable polystyrene plastic cuvette (Kartell LABWARE, Milan, Italy). […] The maximum DMSO concentration was 2% in the assay solution. Each compound was tested in duplicate with a control assay without the inhibitor. The experiment was conducted 3 times. The reaction was initiated by adding NADP(H) to a final concentration of 134 μM in the cuvette, and the change in absorbance (ΔOD/min) at λ = 340 nm was monitored over 180 s at 25 °C with 27 μM. Six different concentrations were analyzed and fitted to a three-parameter logistical (3PL) model. A 95% confidence interval (CI) was used to calculate the standard error for each curve fitting, and a Student’s t test was performed for each duplicate with a significance threshold of p ≤ 0.05. Data fitting and statistical analysis were carried out using the GraphPad Prism Suite (2021).

For series [4], the system named is Trypanosoma brucei brucei L427 wild-type (WT) bloodstream forms. On the set-up: method as in PMID 30908048. Conditions: cited from earlier work; for T. brucei % cell growth inhibition: at 10 μM ref 22; for EC50: read-out: T. brucei EC50.
The target of series [5] is T1, TbPTR1. On the set-up: method as in PMID 30908048. The note with it: cited from earlier work; for IC50: reference compounds, SD within ± 10% ref 22; for TbPTR1 % enzyme inhibition: at 50 μM ref 22.
In series [6] the test system is L. infantum intracellular amastigotes. Set-up: method as in PMID 30908048. Conditions: at 10 μM; intracellular amastigotes ref 22; cited from earlier work.
Another series deals with T2, LmPTR1 (Leishmania major, UniProt Q01782).
T2 sequence (Q01782 1-288): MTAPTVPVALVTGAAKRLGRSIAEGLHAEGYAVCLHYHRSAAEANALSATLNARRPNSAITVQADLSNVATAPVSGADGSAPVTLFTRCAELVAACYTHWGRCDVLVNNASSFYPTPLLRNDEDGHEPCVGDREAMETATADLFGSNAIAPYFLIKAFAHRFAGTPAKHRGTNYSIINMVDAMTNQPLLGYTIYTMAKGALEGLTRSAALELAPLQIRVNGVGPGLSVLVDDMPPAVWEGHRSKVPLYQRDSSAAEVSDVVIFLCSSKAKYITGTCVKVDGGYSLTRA
Set-up: method as in PMID 30908048. Conditions: at 50 μM ref 22; cited from earlier work.

The test system of series [7] is THP-1-derived macrophages. On the set-up: method as in PMID 30908048. Conditions: cytotoxic concentration for THP1 cells ref 22; cited from earlier work.
Series [8] concerns the molecule itself. Kind of series: crystal structure; hanging-drop vapour diffusion, crystals soaked with inhibitors; space group P2(1), asymmetric unit holds a functional TbPTR1 tetramer; ternary complexes with NADP(H) and 1a, 2b, 2c, 2d or 2e.

Read-outs that look alike come from different tables or passages of the source.

For “2-amino-N-(3-(trifluoromethyl)phenethyl)benzo[d]thiazole-6-carboxamide [Compound 2g]”, the “T. brucei % cell growth inhibition” value in [1] is 31±7%. The cytotoxic concentration (CC50) (as a rule, the concentration giving 50% cytotoxicity) in series [2] was over 100 µM. Besides, the IC50 (commonly the midpoint of a concentration-inhibition curve) against TbPTR1 [3] was determined as 7 µM.

Consider `Nc1nc2ccc(SCc3ccc(Cl)c(Cl)c3)cc2s1` [III], for which the “T. brucei % cell growth inhibition” value in series [4] is 46±1%. For the same molecule, the IC50 at TbPTR1 [5] is 0.9 µM.

For the molecule “2-amino-N-(4-(trifluoromethyl)phenethyl)benzo[d]thiazole-6-carboxamide [Compound 2f]”, in series [2], the cytotoxic concentration (CC50) was over 100 µM. On TbPTR1 [3], this molecule had an IC50 of 5.7 µM.

With `COc1ccc(CN(Cc2ccc(Cl)c(Cl)c2)C(=O)c2ccc3nc(N)sc3c2)cc1OC` [VI], in series [4], the EC50 (commonly the midpoint of the concentration-response curve) is 9.7 µM. Besides, the IC50 on TbPTR1 [5] was 15.9 µM.

Regarding `Nc1nc2c(O)cc(C(=O)NCc3ccc(Cl)c(Cl)c3)cc2s1` [VII], the EC50 in series [4] was 5.9 µM. Further, the “L. infantum % cell growth inhibition” value in series [6] is reported as 24±15%. Further, at TbPTR1 [5], the “TbPTR1 % enzyme inhibition” value is listed as 11.8±4.6%. In addition, at LmPTR1, the “LmPTR1 % enzyme inhibition” value is 8.7±0.6%.

As for `Nc1nc2ccc(OCc3ccc(Cl)c(Cl)c3)cc2s1` [II], the “T. brucei % cell growth inhibition” value in series [4] is on record as 42±11%. The CC50 in series [7] was over 100 µM. In addition, at TbPTR1 [5], the IC50 is 3.4 µM.

Turning to `Nc1nc2ccc(S(=O)(=O)Cc3ccc(Cl)c(Cl)c3)cc2s1` [IV], the “T. brucei % cell growth inhibition” value in series [4] is recorded as 37±11%. Moreover, the “L. infantum % cell growth inhibition” value in [6] is 21±5%. Also, the “TbPTR1 % enzyme inhibition” value at TbPTR1 [5] is reported as 16.7±8.4%. The “LmPTR1 % enzyme inhibition” value at LmPTR1 is 26.9±1.8%.

For `Nc1nc2ccc(C(=O)NCc3ccc(Cl)c(Cl)c3)cc2s1` [V], at TbPTR1 [5], the half-inhibitory concentration (IC50) was 5.4 µM.

B1: Trypanosoma brucei pteridine reductase 1 (enzyme)
chain: T1 sequence (O76290 1-268)
modifications: Cys168 oxidized to S-oxycysteine (Csx168) in the crystal structures
notes: Pteridine reductase 1 (PTR1) of Trypanosoma brucei; Ala268 is called the C-terminus; also called TbPTR1; PTR1; source: E. coli BL21(DE3), purified (IMAC on HisTrap FF, SEC on Superdex 200)
In the case of B1, in [8], the stoichiometry N – broadly, a count of units in the complex or per binding partner – stood at 4.

The record behind these values is article PMC12516686, “Design of 2‑Aminobenzothiazole Derivatives Targeting Trypanosomatid PTR1 by a Multidisciplinary Fragment Hybridization Approach” (Journal of Medicinal Chemistry, 2025).
